{"source": "patent US20150197500A1", "about": "“NO-RELEASING GUANIDINE-CHROMENE CONJUGATES” (Euclises Pharmaceuticals, Inc., priority 2014, published 2015)", "test_system": "PGE2 production", "experiment": "Rat air-pouch model for acute inflammation (PGE2 in exudate by ELISA)", "assay_type": "in vivo, Sprague-Dawley rats", "conditions": "oral gavage 0.01 mmol/kg 2 h before carrageenan, exudate 4 h after carrageenan, 6 rats/group", "method": "A study of chromene release is assessed by measurement of PGE2 levels, which are indicative of inflammatory response.\nAnimals: Sprague-Dawley rats (Charles River Laboratories, R #3234, PO #738990, male, 160-180 g) are received, individually examined, and housed in cages of five rats each. The rats are ear notched for identification purposes.\nCompounds and dosing solutions: The vehicle is prepared by dissolving 40 g (2-hydroxypropyl)-[…] making a 25% solution which is filter sterilized (0.2 μm, Nalgene, Cat. 151-4020, lot 1095610). […]\nDay 6—Compound administration and carrageenan insult: At commencement of the study, each rat is weighed and sorted into treatment groups of 6 rats/group based upon average weight. […] The pouch is gently massaged, the exudate immediately removed, and exudate volume recorded. […]\nData analysis: The exudate samples are thawed to room temperature and assayed by ELISA for PGE2 (R&D Systems, Cat. KGE004B, lot 307711). Statistical significance of treatments on mean exudate volumes are determined by comparison of means for treatment groups with vehicle group. Mean cytokine concentrations and standard deviations are determined for each group. […] Statistical significance (p-value) is calculated vs control groups by Student's t-Test. […]", "note": "Structures can show the parent of a compound that is named as a salt.", "data": [{"smiles": "CC(=O)NC(CCCNC(=N)N)C(=O)OCOC(=O)C1=Cc2cc(Cl)c(C(C)(C)C)cc2OC1C(F)(F)F", "note": "(stereo not shown) [Example 33a, trifluoroacetate salt]", "values": [{"measurement": "% Inhibition of PGE2 production relative to control (+/−S.D.)", "value": "75.7 (+/−11.9) %"}]}]}
